Structures are written as SMILES. Calls of active or inactive are those of the source. The calls are words filed in the database; no cut-off is given here.

Eleven compounds from ChEMBL document CHEMBL5500392, “Functional and Structural Characterization of Clinical-Stage Janus Kinase 2 Inhibitors Identifies Determinants for Drug Selectivity” (J Med Chem, 2024) can be followed below.

Assay [1] has as its target T1, Tyrosine-protein kinase JAK2 (Homo sapiens, UniProt O60674). To be noted: dose 30-200 µM.
The target in assay [2] is T1, Tyrosine-protein kinase JAK2. To be noted: dose 30-200 µM. The source holds these as a separate data set.
The target is the same in assay [3]. As to conditions: dose 30-200 µM. The source holds these as a separate data set.
Assay [4] has as its target T2, Non-receptor tyrosine-protein kinase TYK2 (Homo sapiens, UniProt P29597). As to the kind of experiment: Binding affinity to recombinant human TYK2 JH2 (564 to 876-His residues) pseudokinase domain by fluorescence polarization assay. (In fluorescence polarisation assays a small probe gives low polarisation when free and higher when bound to something large.)
In assay [5] the target is T3, Tyrosine-protein kinase JAK1 (Homo sapiens, UniProt P23458). As to the kind of experiment: Binding affinity to recombinant human JAK1 JH2 (553 to 856-His residues) pseudokinase domain by fluorescence polarization assay.
The target in assay [6] is T3, Tyrosine-protein kinase JAK1. Kind of assay: Binding affinity to recombinant human JAK1 kinase domain by fluorescence polarization assay.
Assay [7] has the same target. As to the kind of experiment: Inhibition of recombinant human JAK1 assessed as inhibition of substrate phosphorylation measured every 5 mins for 30 mins by LANCE Ultra kinase assay. A general note: Time-resolved FRET reads energy transfer from a long-lived donor to a nearby acceptor.
Assay [8] addresses T1, Tyrosine-protein kinase JAK2. Kind of assay: Binding affinity to recombinant human JAK2 kinase domain (840 to 1132 residues) assessed as dissociation constant by fluorescence polarization measurement combined ITC analysis.
For assay [9], the target named is T2, Non-receptor tyrosine-protein kinase TYK2. Kind of assay: Inhibition of recombinant human TYK2 assessed as inhibition of substrate phosphorylation measured every 5 mins for 30 mins by LANCE Ultra kinase assay.
The species named for assay [10] is Homo sapiens. Kind of assay: Selectivity index, ratio of IC50 for inhibition of JAK1/JAK3-mediated IL-2 induced STAT5 phosphorylation in human whole blood CD4+ T cells to IC50 for inhibition of JAK1/TYK2-mediated IFN-alpha induced STAT1 phosphorylation in whole blood CD33-positive monocytes. Format: cell-based.
The species named for assay [11] is Homo sapiens. Kind of assay: Selectivity index, ratio of IC50 for inhibition of JAK1/JAK2-mediated IFNgamma-induced STAT1 phosphorylation in human whole blood CD33-positive monocytes to IC50 for inhibition of JAK1/TYK2-mediated IFN-alpha induced STAT1 phosphorylation in whole blood CD33-positive monocytes. The class given is cell-based.
In assay [12] the target is T1, Tyrosine-protein kinase JAK2. Kind of assay: Binding affinity to recombinant human JAK2 kinase domain (840 to 1132 residues) assessed as change in entropy at 30 to 200 uM by fluorescence polarization measurement combined ITC analysis. As to conditions: dose 30-200 µM.
For assay [13] the target is unchanged. As to the kind of experiment: Binding affinity to recombinant human JAK2 kinase domain (840 to 1132 residues) assessed as gibbs free energy change at 30 to 200 uM by fluorescence polarization measurement combined ITC analysis. As to conditions: dose 30-200 µM.
Assay [14] in a line: Selectivity index, ratio of IC50 for cytotoxicity against IL-3 dependent humanized mouse BaF3 cells expressing wild type human JAK2 to IC50 for cytotoxicity against IL-3 dependent humanized mouse BaF3 cells expressing human JAK2 V617F mutant. Format: functional.
Assay [15] deals with T1, Tyrosine-protein kinase JAK2. As to the kind of experiment: Inhibition of JAK2-mediated erythropoietin-induced STAT5 phosphorylation in human TF-1 cells pretreated for 60 mins followed by erythropoietin addition and measured after 15 mins by pacific orange/pacific blue NHS esters based Beckmann coulter flow cytometer. Format: cell-based. In general terms: A flow cytometer gives signals particle by particle.

For assay [16] the target is unchanged. As to the kind of experiment: Inhibition of recombinant human JAK2 assessed as inhibition of substrate phosphorylation measured every 5 mins for 30 mins by LANCE Ultra kinase assay.
The species named for assay [17] is Homo sapiens. As to the kind of experiment: Selectivity index, ratio of IC50 for inhibition of JAK1-mediated IL-6 induced STAT3 phosphorylation in human whole blood CD33-positive monocytes to IC50 for inhibition of JAK1/TYK2-mediated IFN-alpha induced STAT1 phosphorylation in whole blood CD33-positive monocytes. The class given is cell-based.
The target in assay [18] is T2, Non-receptor tyrosine-protein kinase TYK2. Kind of assay: Binding affinity to recombinant human TYK2 kinase domain by fluorescence polarization assay.
The target of assay [19] is T4, Tyrosine-protein kinase JAK3 (Homo sapiens, UniProt P52333).
T4 sequence (P52333 whole entry): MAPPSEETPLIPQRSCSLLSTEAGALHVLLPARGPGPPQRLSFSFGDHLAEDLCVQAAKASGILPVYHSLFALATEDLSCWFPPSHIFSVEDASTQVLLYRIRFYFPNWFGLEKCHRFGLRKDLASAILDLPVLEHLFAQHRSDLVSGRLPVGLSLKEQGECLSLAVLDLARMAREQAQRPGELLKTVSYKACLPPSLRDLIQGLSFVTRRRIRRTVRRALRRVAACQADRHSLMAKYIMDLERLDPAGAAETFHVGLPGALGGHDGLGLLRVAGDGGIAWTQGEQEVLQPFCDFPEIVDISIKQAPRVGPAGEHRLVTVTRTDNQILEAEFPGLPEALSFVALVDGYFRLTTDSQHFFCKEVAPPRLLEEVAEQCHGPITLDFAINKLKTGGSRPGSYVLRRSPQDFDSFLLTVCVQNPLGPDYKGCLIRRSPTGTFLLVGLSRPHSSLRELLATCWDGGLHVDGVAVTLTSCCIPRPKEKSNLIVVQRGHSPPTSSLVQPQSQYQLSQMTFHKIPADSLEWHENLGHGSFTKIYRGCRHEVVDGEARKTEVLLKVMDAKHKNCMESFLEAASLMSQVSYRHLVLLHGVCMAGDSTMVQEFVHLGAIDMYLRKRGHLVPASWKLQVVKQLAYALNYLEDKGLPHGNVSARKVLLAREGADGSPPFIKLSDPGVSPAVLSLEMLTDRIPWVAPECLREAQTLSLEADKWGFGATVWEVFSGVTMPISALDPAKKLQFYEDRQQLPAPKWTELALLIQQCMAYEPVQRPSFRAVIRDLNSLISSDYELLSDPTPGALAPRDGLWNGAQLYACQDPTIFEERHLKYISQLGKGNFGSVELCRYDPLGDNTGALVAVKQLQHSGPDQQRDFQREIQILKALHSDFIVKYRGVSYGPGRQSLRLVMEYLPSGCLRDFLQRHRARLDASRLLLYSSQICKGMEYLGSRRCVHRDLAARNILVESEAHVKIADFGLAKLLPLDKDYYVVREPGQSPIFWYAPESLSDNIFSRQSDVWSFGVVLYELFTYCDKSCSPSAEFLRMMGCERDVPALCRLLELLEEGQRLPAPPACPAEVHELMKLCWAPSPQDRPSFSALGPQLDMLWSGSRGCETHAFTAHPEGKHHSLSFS
As to the kind of experiment: Inhibition of recombinant human JAK3 assessed as inhibition of substrate phosphorylation measured every 5 mins for 30 mins by LANCE Ultra kinase assay.

For assay [20], the target named is T1, Tyrosine-protein kinase JAK2. As to the kind of experiment: Binding affinity to recombinant human JAK2 kinase domain by fluorescence polarization assay.
Assay [21] shares this target. As to the kind of experiment: Binding affinity to recombinant human JAK2 kinase domain (840 to 1132 residues) assessed as change in enthalpy at 30 to 200 uM by fluorescence polarization measurement combined ITC analysis. As to conditions: dose 30-200 µM.
For assay [22], the species on record is Homo sapiens. Kind of assay: Selectivity index, ratio of IC50 for inhibition of JAK2-mediated GM-CSF-induced STAT5 phosphorylation in human whole blood CD33-positive monocytes to IC50 for inhibition of JAK1/TYK2-mediated IFN-alpha induced STAT1 phosphorylation in whole blood CD33-positive monocytes. Format: cell-based.
Assay [23] has as its target T4, Tyrosine-protein kinase JAK3. Kind of assay: Binding affinity to recombinant human JAK3 kinase domain by fluorescence polarization assay.
The target of assay [24] is T1, Tyrosine-protein kinase JAK2. As to the kind of experiment: Binding affinity to recombinant human JAK2 kinase domain (840 to 1132 residues) assessed as dissociation constant by ITC analysis.
Assay [25] concerns BaF3. As to the kind of experiment: Cytotoxicity against IL-3 dependent humanized mouse BaF3 cells expressing wild type human JAK2 assessed as inhibition of cell growth incubated for 48 hrs by alamarBlue assay. Format: functional, cell-based.
Assay [26] has as its system BaF3. As to the kind of experiment: Cytotoxicity against IL-3 dependent humanized mouse BaF3 cells expressing human JAK2 V617F mutant assessed as inhibition of cell growth incubated for 48 hrs by alamarBlue assay. The class given is functional, cell-based.
The species named for assay [27] is Homo sapiens. Kind of assay: Selectivity index, ratio of IC50 for recombinant human JAK1 kinase domain to IC50 for recombinant human JAK2 kinase domain.

T1 sequence (O60674 whole entry): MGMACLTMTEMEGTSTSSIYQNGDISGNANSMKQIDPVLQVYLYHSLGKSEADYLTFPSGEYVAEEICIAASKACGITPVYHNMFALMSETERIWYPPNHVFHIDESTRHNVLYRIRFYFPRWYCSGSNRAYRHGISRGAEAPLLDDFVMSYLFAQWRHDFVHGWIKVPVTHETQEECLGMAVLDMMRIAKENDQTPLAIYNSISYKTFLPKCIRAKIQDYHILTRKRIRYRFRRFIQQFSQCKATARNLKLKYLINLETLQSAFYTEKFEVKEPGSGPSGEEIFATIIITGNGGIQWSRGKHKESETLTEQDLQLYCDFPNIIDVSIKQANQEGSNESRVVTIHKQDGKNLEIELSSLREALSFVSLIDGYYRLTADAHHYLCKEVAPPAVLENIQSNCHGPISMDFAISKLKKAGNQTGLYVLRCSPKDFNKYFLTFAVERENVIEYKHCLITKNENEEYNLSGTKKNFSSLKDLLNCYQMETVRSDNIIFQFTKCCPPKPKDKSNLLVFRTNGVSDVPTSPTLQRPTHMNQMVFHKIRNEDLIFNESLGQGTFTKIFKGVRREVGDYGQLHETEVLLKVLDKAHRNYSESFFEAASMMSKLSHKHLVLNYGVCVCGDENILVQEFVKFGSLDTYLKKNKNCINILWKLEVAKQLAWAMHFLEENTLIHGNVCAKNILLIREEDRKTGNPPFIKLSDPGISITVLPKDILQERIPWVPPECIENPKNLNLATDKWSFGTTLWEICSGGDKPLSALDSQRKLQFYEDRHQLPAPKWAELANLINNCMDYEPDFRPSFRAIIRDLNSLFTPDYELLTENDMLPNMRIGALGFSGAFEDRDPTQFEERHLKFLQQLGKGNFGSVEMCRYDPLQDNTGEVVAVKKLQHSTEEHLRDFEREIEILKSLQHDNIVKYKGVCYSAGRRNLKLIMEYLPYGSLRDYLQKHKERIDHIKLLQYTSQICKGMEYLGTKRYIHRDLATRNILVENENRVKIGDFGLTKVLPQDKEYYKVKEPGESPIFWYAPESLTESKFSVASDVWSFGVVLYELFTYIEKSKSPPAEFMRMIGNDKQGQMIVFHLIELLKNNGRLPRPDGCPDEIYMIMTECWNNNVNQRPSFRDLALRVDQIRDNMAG
T2 sequence (P29597 whole entry, the tested form may be a part): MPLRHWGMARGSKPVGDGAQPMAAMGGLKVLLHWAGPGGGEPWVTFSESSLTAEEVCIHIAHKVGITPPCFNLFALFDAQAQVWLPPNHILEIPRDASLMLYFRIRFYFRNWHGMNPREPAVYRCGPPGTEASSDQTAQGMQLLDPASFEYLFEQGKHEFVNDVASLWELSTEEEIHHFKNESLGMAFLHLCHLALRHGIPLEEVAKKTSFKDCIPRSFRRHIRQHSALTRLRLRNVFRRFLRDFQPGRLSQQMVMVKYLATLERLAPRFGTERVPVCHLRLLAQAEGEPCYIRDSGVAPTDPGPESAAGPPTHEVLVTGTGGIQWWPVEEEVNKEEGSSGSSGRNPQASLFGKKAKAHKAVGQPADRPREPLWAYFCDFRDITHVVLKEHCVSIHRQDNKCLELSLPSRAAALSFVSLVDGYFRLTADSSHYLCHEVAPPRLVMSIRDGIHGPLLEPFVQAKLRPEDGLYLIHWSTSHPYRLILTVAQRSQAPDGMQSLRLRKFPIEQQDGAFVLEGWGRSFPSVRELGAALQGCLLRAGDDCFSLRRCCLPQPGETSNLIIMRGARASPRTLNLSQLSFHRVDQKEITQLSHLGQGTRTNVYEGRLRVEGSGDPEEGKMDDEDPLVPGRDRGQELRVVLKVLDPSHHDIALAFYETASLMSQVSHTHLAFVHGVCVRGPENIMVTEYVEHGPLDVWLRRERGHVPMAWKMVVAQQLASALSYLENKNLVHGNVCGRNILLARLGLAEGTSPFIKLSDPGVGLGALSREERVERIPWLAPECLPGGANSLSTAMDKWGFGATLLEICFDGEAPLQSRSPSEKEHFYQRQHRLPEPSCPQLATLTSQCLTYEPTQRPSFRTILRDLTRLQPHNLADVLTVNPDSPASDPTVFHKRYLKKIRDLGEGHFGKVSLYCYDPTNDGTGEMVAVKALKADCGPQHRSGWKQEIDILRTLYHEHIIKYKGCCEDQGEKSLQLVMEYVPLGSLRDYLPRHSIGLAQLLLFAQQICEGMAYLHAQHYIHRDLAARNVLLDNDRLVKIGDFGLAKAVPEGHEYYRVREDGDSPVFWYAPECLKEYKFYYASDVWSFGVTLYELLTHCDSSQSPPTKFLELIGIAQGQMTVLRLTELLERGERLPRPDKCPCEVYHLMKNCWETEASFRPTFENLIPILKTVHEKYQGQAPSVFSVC
T3 sequence (P23458 whole entry, the tested form may be a part): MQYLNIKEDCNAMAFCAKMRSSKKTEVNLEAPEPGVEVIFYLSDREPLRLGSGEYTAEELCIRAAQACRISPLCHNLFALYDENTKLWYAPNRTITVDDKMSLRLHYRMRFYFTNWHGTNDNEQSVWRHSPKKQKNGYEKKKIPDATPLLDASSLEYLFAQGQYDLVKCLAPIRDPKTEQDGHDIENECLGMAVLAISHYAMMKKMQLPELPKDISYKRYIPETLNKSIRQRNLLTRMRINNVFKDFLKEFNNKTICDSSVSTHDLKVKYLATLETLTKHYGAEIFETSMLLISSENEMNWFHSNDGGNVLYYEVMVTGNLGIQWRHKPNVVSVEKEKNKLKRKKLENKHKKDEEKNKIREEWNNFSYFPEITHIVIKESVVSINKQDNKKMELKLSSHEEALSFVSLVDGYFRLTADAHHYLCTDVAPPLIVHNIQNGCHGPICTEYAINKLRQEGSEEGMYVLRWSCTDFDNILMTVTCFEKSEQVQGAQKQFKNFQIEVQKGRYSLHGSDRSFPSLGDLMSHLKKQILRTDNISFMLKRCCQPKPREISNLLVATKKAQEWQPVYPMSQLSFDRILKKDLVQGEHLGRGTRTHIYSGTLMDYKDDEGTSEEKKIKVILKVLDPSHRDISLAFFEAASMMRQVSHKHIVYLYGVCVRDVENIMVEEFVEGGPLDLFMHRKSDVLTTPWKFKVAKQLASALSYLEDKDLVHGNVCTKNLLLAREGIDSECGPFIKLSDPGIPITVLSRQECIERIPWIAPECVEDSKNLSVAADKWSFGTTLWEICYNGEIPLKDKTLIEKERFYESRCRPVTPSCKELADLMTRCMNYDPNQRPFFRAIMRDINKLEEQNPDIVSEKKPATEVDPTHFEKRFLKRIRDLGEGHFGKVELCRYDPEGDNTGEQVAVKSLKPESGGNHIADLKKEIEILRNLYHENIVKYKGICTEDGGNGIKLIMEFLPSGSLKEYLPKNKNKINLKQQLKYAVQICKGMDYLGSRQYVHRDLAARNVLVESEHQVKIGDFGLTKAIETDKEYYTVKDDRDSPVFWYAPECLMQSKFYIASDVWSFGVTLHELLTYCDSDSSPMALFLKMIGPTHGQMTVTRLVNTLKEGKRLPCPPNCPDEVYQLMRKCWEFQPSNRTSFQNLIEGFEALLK

`N#CCNC(=O)c1ccc(-c2ccnc(Nc3ccc(N4CCOCC4)cc3)n2)cc1`: in assay [1], the deltaH is -14.4 kcal/mol. Moreover, in [2], the -TdeltaS was 3.2 kcal/mol. In [3], this compound gave a deltaG of -11.3 kcal/mol.

On to `O=C(Nc1c[nH]nc1-c1nc2ccc(CN3CCOCC3)cc2[nH]1)NC1CC1`, for which the outcome in assay [4] and in assay [5] was Active.

For orientation: Kd means a measure of binding affinity in units of concentration. What is called IC50 is the concentration at which inhibition is half-maximal. As for `O=C(Nc1c[nH]nc1-c1nc2cc(CN3CCOCC3)ccc2[nH]1)NC1CC1` [AT-9283], the Kd in assay [6] is 37 nM. For the same compound, the IC50 in assay [7] turned out to be 65 nM.

Consider `Cc1cc(Nc2cc(CN3CCOCC3)c3nc(C)c(Cc4ccc(Cl)cc4F)n3n2)n[nH]1` [GANDOTINIB], for which the Kd was 11 nM in assay [8]; 8.2 nM in assay [6]; 16 nM in [18]; 11 nM in assay [20]; 13 nM in [23]. In addition, the IC50 in [9] was 92 nM; in assay [7], 7.3 nM; in assay [15] it was 155 nM; in assay [16], 6.2 nM; in [19], 199 nM. Further, the Ratio IC50 in the assay filed under Homo sapiens [10] stood at 1.1; in the assay listed under Homo sapiens [11] it was 2.3; in assay [14], 1.5; in the assay listed under Homo sapiens [17], 4; in the assay listed under Homo sapiens [22], 7.5. Also, in assay [12], the -TdeltaS was -6.6 kcal/mol. Besides, the deltaG in assay [13] was -10.7 kcal/mol. For the same compound, the deltaH in assay [21] is -4.1 kcal/mol.

Take `C1=C/COCc2cc(ccc2OCCN2CCCC2)Nc2nccc(n2)-c2cccc(c2)COC/1` [PACRITINIB]: the IC50 in [9] was found to be 536 nM; in assay [7], 371 nM. Further, the Kd in [6] stood at 318 nM; in assay [18], 125 nM.

Regarding `C1=N/C2=N/c3ccc(OCCN4CCCC4)c(c3)COC/C=C/COCc3cccc(c3)C(=C1)N2`, in assay [1], the deltaH is -7.6 kcal/mol. In addition, the -TdeltaS in assay [2] was -3.3 kcal/mol. This compound also returned a deltaG in [3] of -10.9 kcal/mol. Besides, the result in [4] was Active.

In assay [1], `N#CCC1(n2cc(-c3ncnc4[nH]ccc34)cn2)CN(C2CCN(C(=O)c3ccnc(C(F)(F)F)c3F)CC2)C1` [ITACITINIB] came in with a deltaH of -5.4 kcal/mol. In addition, the IC50 in [9] was determined as 4100 nM; in assay [7] it was 3.4 nM; in [15] it was 488 nM; in assay [16], 54 nM; in assay [19], 10800 nM. The Kd was found to be 51 nM in assay [6]; 10.7 nM in [24]; 385 nM in assay [18]; 26 nM in [20]; 324 nM in assay [23]. Besides, the Ratio IC50 in the assay listed under Homo sapiens [10] turned out to be 0.4; in the assay filed under Homo sapiens [11], 0.8; in the assay filed under Homo sapiens [17] it was 1.2; in the assay filed under Homo sapiens [22], 16.7. Moreover, in assay [2], the -TdeltaS was -5.4 kcal/mol. In addition, in assay [3], the deltaG was -10.7 kcal/mol.

With `N#CC[C@H](C1CCCC1)n1cc(-c2ncnc3[nH]ccc23)cn1`, the outcome in the assay on BaF3 [25] and with BaF3 [26] was Active.

`CCS(=O)(=O)N1CCN(c2ccc(Nc3ncc(C(N)=O)c(NC4CC4)n3)cc2)CC1` [CERDULATINIB] came in with a deltaH in assay [1] of -10.4 kcal/mol. The IC50 in [9] is 26 nM; in assay [7] it was 22 nM; in assay [15], 99 nM; in [16] it was 11 nM. Further, the Kd in [6] stood at 23 nM; in [24] it was 8.9 nM; in assay [18], 6.9 nM; in assay [20] it was 4.8 nM. The same compound had a -TdeltaS in assay [2] of -0.4 kcal/mol. For the same compound, in [3], the deltaG is -10.8 kcal/mol. Further, the outcome in assay [4] and in assay [5] was Active.

Regarding `C[C@]12O[C@H](C[C@]1(O)CO)n1c3ccccc3c3c4c(c5c6ccccc6n2c5c31)CNC4=O`, the result with BaF3 [25] and in the assay on BaF3 [26] was Active.

As for `C[C@H](Nc1cc(-c2cnn(C)c2)cc(Nc2cnccn2)n1)c1ccc(F)cc1` [NS-018], the Ratio IC50 in the assay filed under Homo sapiens [27] came to 9; in the assay filed under Homo sapiens [10] it was 1.7; in the assay filed under Homo sapiens [11], 0.6; in the assay filed under Homo sapiens [17], 2.8; in the assay listed under Homo sapiens [22], 5.8. Further, the deltaH in [1] was -12.5 kcal/mol. Besides, the IC50 is 216 nM in assay [9]; 7.1 nM in [7]; 41 nM in assay [15]; 0.8 nM in assay [16]; 182 nM in assay [19]. For the same compound, the Kd turned out to be 16 nM in assay [6]; 4 nM in [24]; 21 nM in assay [18]; 4.5 nM in assay [20]; 19 nM in [23]. In assay [2], the -TdeltaS was 1.2 kcal/mol. Also, the deltaG in assay [3] is -11.3 kcal/mol.
